Active and inactive are the calls of the source. Where only a bound is given, the exact number is not on record here.

In test [1] the test system is BJ. In words: BJ-TERT fibroblast viability loss – cell-based, RAS-independent, luminescence, dose response (AID 1933). The format is functional, Homo sapiens. To be noted: bj.
Test [2] deals with BJ. Put plainly: cells. The class given is functional, cell-based, Homo sapiens. The settings on record: bj.
The test system of test [3] is BJ. Put plainly: BJ-TERT-LT-ST fibroblast viability loss – cell-based, RAS-independent, luminescence, dose response (AID 1935).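 Also: BJ fibroblasts immortalized with TERT plus LT and ST oncogenes.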 The format is functional, Homo sapiens. The settings on record: bj.
Another test deals with X-box-binding protein 1 (Homo sapiens, UniProt P17861). The format is functional, Cricetulus griseus.
Chain of X-box-binding protein 1 (P17861 whole entry): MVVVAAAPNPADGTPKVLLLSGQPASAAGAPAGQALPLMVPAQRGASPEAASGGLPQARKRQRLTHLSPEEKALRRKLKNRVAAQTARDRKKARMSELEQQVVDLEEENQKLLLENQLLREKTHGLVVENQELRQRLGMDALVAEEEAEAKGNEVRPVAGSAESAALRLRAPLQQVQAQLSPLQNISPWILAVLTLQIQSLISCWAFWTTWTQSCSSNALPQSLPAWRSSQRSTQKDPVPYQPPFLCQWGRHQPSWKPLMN
Test [4] can be described thus: Trypanosoma cruzi growth suppression in host cells – NIH3T3 host cells, beta-gal luminescence, confirmation (AID 2044).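 Also: intracellular parasites grown in NIH/3T3 mouse fibroblasts as host cells; luminescent beta-galactosidase reporter signal from transgenic T. cruzi replicating inside host cells; inhibitors lower the luminescence signal.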 The class given is functional, cell-based.
Test [5] in a line: NIH3T3 cell viability loss – ATP luminescence, mouse fibroblasts, counter-screen, dose response (AID 2010).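 Also: cells exposed to compound for about 90 hours before reading.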 The class given is functional, cell-based. (The purpose of a counterscreen is to sort out artefacts and off-target activity.)
Test [6] in a line: THP-1 cell cytotoxicity, dose response, cytotoxicity control for non-replicating M. tuberculosis project (AID 489025). The class given is functional.
The nature of test [7]: HepG2 cell cytotoxicity, dose response, cytotoxicity control for non-replicating M. tuberculosis project (AID 489018). The format is functional. To be noted: Mycobacterium tuberculosis.
Test [8] can be described thus: Vero E6 cell cytotoxicity, dose response, cytotoxicity control for non-replicating M. tuberculosis project, secondary assay (AID 492998). The class given is functional, VeroE6. To be noted: Vero C1008.
The next test is described as follows: cells. The format is functional.
Test [9] addresses Glucose-6-phosphate 1-dehydrogenase (Homo sapiens, UniProt P11413). In words: inhibition of Homo sapiens G6PD, dose series – biochemical, fluorescence, selectivity assay for P. falciparum G6PD inhibitor project, dose response (AID 504792). The class given is functional.
Test [10] in a line: Luminescence Cell-Based Dose Retest to Confirm Inhibitors of Cancer Stem Cells. [Related pubchem assays (depositor defined):AID2717, AID2721]. The class given is functional. The settings on record: Homo sapiens.
A further test addresses Beta-galactosidase (Escherichia coli, UniProt Q8VNN2). In words: detection-enzyme interference by beta-gal modulators – biochemical, E. coli enzyme, set 3, artefact control for CCR6 antagonist project, dose response (AID 504712). The class given is functional.
Test [11] deals with DNA dC->dU-editing enzyme APOBEC-3G (Homo sapiens, UniProt Q9HC16). Put plainly: Dose Response confirmation of small molecule APOBEC3G DNA Deaminase Inhibitors via a fluorescence-based single-stranded DNA deaminase assay. [Related pubchem assays (depositor defined):AID493012, AID493028]. The format is functional.
Chain of DNA dC->dU-editing enzyme APOBEC-3G (Q9HC16 whole entry): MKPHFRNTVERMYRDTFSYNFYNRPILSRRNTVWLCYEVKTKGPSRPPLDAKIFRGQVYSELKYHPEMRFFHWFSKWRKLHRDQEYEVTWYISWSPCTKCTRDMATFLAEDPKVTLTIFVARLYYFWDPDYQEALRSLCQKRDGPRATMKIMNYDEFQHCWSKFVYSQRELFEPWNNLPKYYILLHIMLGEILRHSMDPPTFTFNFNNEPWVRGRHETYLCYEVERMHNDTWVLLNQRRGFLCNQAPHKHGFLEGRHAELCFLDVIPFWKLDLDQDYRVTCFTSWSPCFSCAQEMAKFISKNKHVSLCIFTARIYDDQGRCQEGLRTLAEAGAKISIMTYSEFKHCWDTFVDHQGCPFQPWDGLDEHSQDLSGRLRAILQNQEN
Test [12] has as its target Heat shock protein HSP 90-alpha (Homo sapiens, UniProt P07900). The class given is functional, organism-based.
Test [13] in a line: reduction of Shn3 3'UTR-driven luciferase in osteoblasts – cell-based, Clone20 osteoblasts, firefly luciferase, cherry-picked, dose response (AID 624132).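 Also: firefly luciferase luminescence from reporter carrying the Shn3 3'UTR in osteoblasts.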 The format is functional.
Test [14] can be described thus: loss of viability in HepG2 cells – cell-based, CellTiter-Glo, cherry-picked, cytotoxicity control for Shn3 inhibitor project, dose response (AID 624134). The class given is functional. For orientation: In ATP-based viability assays light output follows the ATP content of the culture.
Test [15] in a line: non-specific 3'UTR reporter inhibition in Clone20-Shn3RL – cell-based, Renilla luciferase, cherry-picked, counter-screen for Shn3 inhibitor project, dose response (AID 624133). The format is functional.
The nature of test [16]: Shn3 3'UTR reporter signal decrease – cell-based, Clone20 osteoblasts, firefly luciferase, cherry-pick, set 2, Schnurri-3 inhibitor project, dose response (AID 720490).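 Also: actives lower the luminescence signal as inhibitors.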 The class given is functional.
Test [17] can be described thus: EF1alpha-driven Renilla reporter with control 3'UTR suppression – Clone20-Shn3RL cells, dual-Glo, cherry-pick, set 2, counter-screen for Shn3 3'UTR targeting project, dose response (AID 720724). The format is functional, cell-based. The settings on record: Dual-Go Shn3RL.
The target in the next test is Troponin, cardiac muscle (Homo sapiens, UniProt P19429+P45379+P63316). Put plainly: Fluorescence-based biochemical high throughput dose response assay for activators of the calcium sensitivity of cardiac Regulated Thin Filaments (RTF). [Related pubchem assays (depositor defined):AID493008, AID493018, AID504382, AID504383]. The class given is protein-complex assay.

The target of test [18] is G-protein coupled receptor 55 (Homo sapiens, UniProt Q9Y2T6). Put plainly: inhibition of LPI-stimulated GPR55 beta-arrestin translocation – imaging, U2OS, beta-arrestin-GFP, LPI agonist, primary screen (AID 2013).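 Also: antagonist potency measured as reduced agonist-driven arrestin aggregation.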 The class given is functional.
Chain of G-protein coupled receptor 55 (Q9Y2T6 whole entry): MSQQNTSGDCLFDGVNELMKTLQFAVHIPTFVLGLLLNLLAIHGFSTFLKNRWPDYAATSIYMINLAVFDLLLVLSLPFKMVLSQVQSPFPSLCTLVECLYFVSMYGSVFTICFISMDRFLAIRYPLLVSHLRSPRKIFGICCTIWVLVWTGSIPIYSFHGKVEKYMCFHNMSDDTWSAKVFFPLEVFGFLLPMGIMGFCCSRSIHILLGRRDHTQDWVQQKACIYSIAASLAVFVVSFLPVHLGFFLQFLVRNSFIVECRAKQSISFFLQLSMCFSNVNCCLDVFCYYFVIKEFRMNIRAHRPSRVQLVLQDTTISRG
For a further test, the target named is Large T antigen (Simian virus 40, UniProt P03070). The class given is functional, Betapolyomavirus macacae.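 Also: Confirmatory-stage PubChem screen for compounds that inhibit SV40 T antigen.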
Chain of Large T antigen (P03070 whole entry): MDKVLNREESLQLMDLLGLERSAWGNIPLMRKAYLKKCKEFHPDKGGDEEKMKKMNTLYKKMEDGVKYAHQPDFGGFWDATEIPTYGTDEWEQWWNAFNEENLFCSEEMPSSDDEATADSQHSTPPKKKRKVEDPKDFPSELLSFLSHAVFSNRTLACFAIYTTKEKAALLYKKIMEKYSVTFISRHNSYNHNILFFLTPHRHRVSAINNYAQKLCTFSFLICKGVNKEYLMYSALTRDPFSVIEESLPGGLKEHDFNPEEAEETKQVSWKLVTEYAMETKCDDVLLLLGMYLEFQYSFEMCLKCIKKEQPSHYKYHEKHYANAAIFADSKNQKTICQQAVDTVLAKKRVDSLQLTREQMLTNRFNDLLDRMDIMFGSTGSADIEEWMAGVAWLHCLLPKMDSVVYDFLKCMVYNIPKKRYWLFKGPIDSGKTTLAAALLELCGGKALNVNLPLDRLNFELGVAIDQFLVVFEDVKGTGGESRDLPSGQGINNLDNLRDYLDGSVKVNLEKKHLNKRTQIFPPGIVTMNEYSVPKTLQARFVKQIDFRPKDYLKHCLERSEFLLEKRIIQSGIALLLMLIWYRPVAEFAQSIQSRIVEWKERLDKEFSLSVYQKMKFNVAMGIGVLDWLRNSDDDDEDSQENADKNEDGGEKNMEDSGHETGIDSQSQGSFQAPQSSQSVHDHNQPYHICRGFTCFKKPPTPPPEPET
Test [19] deals with FAD-linked sulfhydryl oxidase ALR (Homo sapiens, UniProt P55789). In words: ALR-catalysed DTT oxidation blockers – biochemical, H2O2 detection, luminescence, cherry-pick, dose response (AID 493248).
Chain of FAD-linked sulfhydryl oxidase ALR (P55789 whole entry): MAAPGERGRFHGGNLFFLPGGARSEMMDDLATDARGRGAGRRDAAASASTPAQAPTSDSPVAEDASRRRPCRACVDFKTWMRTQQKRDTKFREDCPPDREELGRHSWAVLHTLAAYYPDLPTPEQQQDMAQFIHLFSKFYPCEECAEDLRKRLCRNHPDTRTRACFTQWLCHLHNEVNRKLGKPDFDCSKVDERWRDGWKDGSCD
The target of test [20] is T1, Polyadenylate-binding protein 1 (Homo sapiens, UniProt P11940). In words: MLLE binding blockers, Cy5 peptide tracer – biochemical, fluorescence polarization, Cy5-PAM2 peptide, secondary, miRNA deadenylation inhibitor project, dose response (AID 602260). The format is functional. To be noted: read-out: IC50_Mean. In general terms: Polarisation of emitted light reports the rotation of a fluorescent probe.
T1 sequence (P11940 whole entry): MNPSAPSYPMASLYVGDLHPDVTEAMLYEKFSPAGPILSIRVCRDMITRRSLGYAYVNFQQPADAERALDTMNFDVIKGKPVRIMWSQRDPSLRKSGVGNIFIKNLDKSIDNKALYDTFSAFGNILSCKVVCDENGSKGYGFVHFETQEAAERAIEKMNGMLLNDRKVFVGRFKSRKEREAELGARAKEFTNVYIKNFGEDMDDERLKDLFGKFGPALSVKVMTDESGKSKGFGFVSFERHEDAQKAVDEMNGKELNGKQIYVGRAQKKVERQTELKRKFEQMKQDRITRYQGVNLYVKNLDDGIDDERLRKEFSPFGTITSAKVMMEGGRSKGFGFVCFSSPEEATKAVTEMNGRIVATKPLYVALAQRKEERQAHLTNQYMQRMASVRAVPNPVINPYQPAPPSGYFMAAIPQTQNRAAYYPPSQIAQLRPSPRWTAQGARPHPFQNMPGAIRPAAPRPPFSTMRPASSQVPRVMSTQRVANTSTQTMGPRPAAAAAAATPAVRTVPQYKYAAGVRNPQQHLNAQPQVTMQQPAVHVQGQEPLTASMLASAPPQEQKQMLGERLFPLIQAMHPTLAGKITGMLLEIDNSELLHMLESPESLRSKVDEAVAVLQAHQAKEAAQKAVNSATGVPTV

The target of test [21] is T1, Polyadenylate-binding protein 1. Put plainly: MLLE domain peptide-binding blockers, IC50 – biochemical, fluorescence polarization, FITC-PAM2 peptide, dose response (AID 602259). The class given is functional. To be noted: read-out: IC50_Mean.
A further test deals with HEK293. In words: EBV LMP1 TES2 canonical NF-kB signalling blockers – cell-based, HEK293, luciferase, cherry-pick, dose response (AID 588343). To be noted: Homo sapiens. The class given is functional.
The test system of the next test is H9c2. In words: cells. To be noted: Rattus norvegicus, H9c2, Myocardium. The format is functional, cell-based.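 Also: confirmatory concentration-response retest of ultra-high-throughput screening hits for modulation of myocardial damage; cell death induced by hydrogen peroxide oxidative stress; compound pretreatment for 60 min then peroxide exposure for 2 h; potency is for protecting the cells against peroxide damage rather than for killing them.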
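For Absolute IC50 (XBP1) in this document: confirmatory dose-response counter-screen serving a CHOP assay.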

Chain of Beta-galactosidase (Q8VNN2 whole entry): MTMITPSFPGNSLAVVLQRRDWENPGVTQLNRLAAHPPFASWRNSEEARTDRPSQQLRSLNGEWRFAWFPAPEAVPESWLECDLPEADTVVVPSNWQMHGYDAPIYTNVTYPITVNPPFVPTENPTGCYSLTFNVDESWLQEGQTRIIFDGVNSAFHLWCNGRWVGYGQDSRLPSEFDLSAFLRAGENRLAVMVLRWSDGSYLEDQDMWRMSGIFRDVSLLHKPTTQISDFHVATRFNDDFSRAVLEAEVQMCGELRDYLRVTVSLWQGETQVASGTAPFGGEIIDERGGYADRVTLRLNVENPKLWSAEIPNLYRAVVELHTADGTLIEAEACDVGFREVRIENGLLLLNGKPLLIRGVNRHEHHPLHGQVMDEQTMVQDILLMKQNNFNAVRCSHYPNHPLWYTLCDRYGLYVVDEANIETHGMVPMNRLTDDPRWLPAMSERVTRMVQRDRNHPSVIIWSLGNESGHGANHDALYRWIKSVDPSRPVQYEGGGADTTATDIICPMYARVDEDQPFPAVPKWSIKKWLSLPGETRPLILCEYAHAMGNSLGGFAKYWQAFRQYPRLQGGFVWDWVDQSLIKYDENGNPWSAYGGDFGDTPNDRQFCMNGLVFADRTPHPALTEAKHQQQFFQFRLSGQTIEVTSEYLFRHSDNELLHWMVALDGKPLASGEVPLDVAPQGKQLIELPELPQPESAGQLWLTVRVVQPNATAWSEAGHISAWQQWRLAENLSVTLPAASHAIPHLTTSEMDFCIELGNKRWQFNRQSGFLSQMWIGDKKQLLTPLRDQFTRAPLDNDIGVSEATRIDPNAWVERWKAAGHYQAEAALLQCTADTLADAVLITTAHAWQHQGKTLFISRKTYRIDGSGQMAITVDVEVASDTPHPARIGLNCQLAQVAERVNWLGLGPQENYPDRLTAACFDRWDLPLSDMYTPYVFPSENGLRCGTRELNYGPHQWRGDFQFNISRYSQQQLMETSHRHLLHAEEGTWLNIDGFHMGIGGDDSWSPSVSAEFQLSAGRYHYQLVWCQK
Chain of Glucose-6-phosphate 1-dehydrogenase (P11413 whole entry): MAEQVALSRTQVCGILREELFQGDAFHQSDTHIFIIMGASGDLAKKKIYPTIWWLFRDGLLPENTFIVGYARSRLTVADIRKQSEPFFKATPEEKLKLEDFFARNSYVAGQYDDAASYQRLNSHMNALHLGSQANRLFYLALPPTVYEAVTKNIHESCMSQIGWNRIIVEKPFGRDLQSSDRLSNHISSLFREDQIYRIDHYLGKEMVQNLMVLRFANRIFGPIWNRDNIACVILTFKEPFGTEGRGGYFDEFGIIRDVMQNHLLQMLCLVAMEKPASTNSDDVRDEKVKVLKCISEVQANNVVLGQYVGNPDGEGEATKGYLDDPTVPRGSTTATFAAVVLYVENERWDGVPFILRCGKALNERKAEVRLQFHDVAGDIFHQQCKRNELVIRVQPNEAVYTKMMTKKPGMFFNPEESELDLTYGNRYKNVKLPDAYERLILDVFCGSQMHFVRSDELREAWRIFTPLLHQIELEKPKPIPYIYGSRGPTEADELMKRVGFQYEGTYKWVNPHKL

Usually EC50 stands for the concentration needed to bring the measured effect to its halfway point. For the molecule `C=C(C=O)CC1CC(O)[C@]2(C)OC3CC4OC5C[C@]6(C)O[C@]7(C)CCC8OC9C[C@]%10(C)OC%11C(C)=CC(=O)OC%11CC%10OC9C[C@@H](C)C8OC7CC6O[C@]5(C)CC5OC5C4OC3CC2O1` (some centres undefined), the EC50 was 1.17 µM (inconclusive) in the test with BJ [1], 2.93 µM (inconclusive) with BJ [2] and 0.735 µM (inconclusive) in the test on BJ [3]. Moreover, the “Absolute IC50 (XBP1)” value at X-box-binding protein 1 was determined as 4.71 µM.

The term CC50 denotes the concentration at which the toxic effect on the cells reaches its halfway point. Consider `Cc1ccnc(NS(=O)(=O)c2ccc(NC(=O)c3ccc([N+](=O)[O-])s3)cc2)n1`, for which the EC50 in test [4] is 0.967 µM (active); in test [5] it was > 60 µM (not active). For the same molecule, the half-maximal cytotoxic concentration (CC50) was 10.2 µM (active) in test [6], > 20 µM (active) in test [7] and > 20 µM (active) in [8]. In addition, the IC50 in “cells” is 6.24 µM (active).

Usually AC50 stands for the concentration at which the activity in the assay is half-maximal. For the molecule `Cc1ccc(NC(=O)c2ccc(Cl)c(N3C(=O)C=CC3=O)c2)cc1`, the figures for the IC50 (in [9]; on Beta-galactosidase; in test [11]) were 48.8 µM (inactive), > 66.6 µM (inactive) and 37.7 µM (active), respectively. Besides, the AC50 in [10] is 4.21 µM (active); in [12], 3.64 µM (active); in test [13] it was 1.6 µM (active); in test [14] it was 55.1 µM (active); in test [15], 9.79 µM (active); in test [16], 5.17 µM (active). For the same molecule, in [17], the AC50 was 1.93 µM (active).

For the molecule `CCOC(=O)c1c(NC(=O)Cc2cccs2)sc(C(=O)NC2CCCCC2)c1C`, the “Absolute IC50 (XBP1)” value on X-box-binding protein 1 worked out at 10 µM.

Take `COc1ccc(C)cc1NC(=O)C12CCC(C)(C(=O)O1)C2(C)C` (centres undefined): the EC50 on Troponin, cardiac muscle is > 71.5 µM (inactive).

Regarding `CCn1c(Cn2nnc(-c3ccccc3)n2)nnc1SCc1ccc(Cl)c(Cl)c1`, the IC50 in test [18] is 2.8 µM (active).

In the case of `Nc1nc2ccc(S(=O)(=O)N3CCCCC3)cc2s1`, the IC50 is 13.9 µM (inactive) in test [18], 8.51 µM (active) at Large T antigen, > 66 µM (inactive) in [20] and > 66 µM (inactive) in test [21]. Moreover, the AC50 in [19] is 3.3 µM (active).

On to `COc1cccc(-c2nnc(NC(=O)c3ccc(S(=O)(=O)N(CC(C)C)CC(C)C)cc3)o2)c1`, for which the CC50 in [6] is 0.996 µM (active); in [7] it was 5.3 µM (active); in test [8], 2.37 µM (active). Also, the IC50 in “cells” was 16.3 µM (active); in the test with H9c2, > 79 µM (inactive). The AC50 in the test on HEK293 was 8.51 µM (active).
